Laboratory results taken from PMC5859250, “Contribution of transformation products towards the total herbicide toxicity to tropical marine organisms” (Scientific Reports, 2018).
In brackets after ≈: the same amount, converted by molar mass.

Legend:
[1] = Herbicide degradation in outdoor tanks with coastal seawater and sediment (330 d); type: physicochemical; settings: for Transformation product concentration: in tank of the parent herbicide, measured or estimated
Description: Photosystem II herbicides/transformation product solutions were produced by adding herbicides to seawater within separate 120 l outdoor fibreglass tanks, in the presence of natural coastal sediments (further details can be found in Mercurio 2016)[36]. […] The tanks used were previously described in Mercurio et al.[8], with treatment water being partially shaded (70%) and exposed to a maximum of 700 µmol photons m^−2s^−1 over the course of the experiment. The application of a natural diurnal light regime and coastal sediment were previously shown to increase the rates of PSII herbicide degradation and represent more natural conditions than those used in standard degradation tests[8],[36]. Evaporation was minimised with loose-fitting clear acrylic lids and the water continuously circulated using Turbelle Nanostream pumps. Prior to every sampling period evaporation losses were replenished with equal volumes of MilliQ water. The average temperature was 25.7 °C with a range of 15.6–36.6 °C over the course of the study. Unfiltered coastal seawater and sediments were collected from the intertidal zone adjacent to the Australian Institute of Marine Science (19°16′S, 147°03′E), Cape Cleveland, QLD. The sediments were prepared one week prior to use by sieving (>2 mm removed) and thorough mixing. Each tank contained 5 kg of sediment. Physical and chemical information on the seawater and sediments used the treatments can be found in SOM Table 1.
The 20 tanks included replicates for control seawater (n = 4) and the PSII herbicides diuron (n = 4), atrazine (n = 3), simazine (n = 3), hexazinone (n = 3), and ametryn (n = 3). Herbicide treatments and replicates were randomized among tanks. The herbicides were purchased from Sigma Aldrich (>95% purity) and were introduced at ~1 mg l^−1 to enable direct chemical and toxicological testing of the herbicide transformation product mixtures without additional concentration steps. […] The same concentration was used in the controls. Sample collection, internal standard addition, and analytical techniques (HPLC-MS/MS using an AB/Sciex API5500Q mass spectrometer equipped with an electrospray interface and coupled to a Shimadzu Prominence HPLC system) were as previously reported[7],[36]. […] Individual replicates were analysed using HPLC/TripleTOF mass spectrometry for possible transformation products as described in Mercurio 2016[36]. Briefly, 0.2 µm-filtered samples were directly injected into an ABSciex API5600+ Triple TOF mass spectrometer (ABSciex, Concord, Ontario, Canada) equipped with an electrospray (TurboV) interface coupled to a Shimadzu Nexera HPLC system (Shimadzu Corp., Kyoto, Japan). Separation was achieved using a 4 micron 50 × 2.0 mm Phenomenex Synergi Fusion RP column (Phenomenex, Torrance, CA) run at 45 °C, and a flow rate of 0.4 mL min^−1 with a linear gradient starting at 8% B for 0.5 minutes, ramped to 100% B in 8 minutes then held at 100% for 2.0 minutes followed by equilibration at 8% B for 2.5 minutes (A = 1% methanol in HPLC grade water, B = 95% methanol in HPLC grade water, both containing 0.1% acetic acid). The mass spectrometer was operated in positive ion SWATH mode. Briefly this mode comprises a TOF scan of 50 millisecond duration followed by small segments of the mass range being transmitted through the quadrupole, fragmented in the collision cell and full TOF mass spectra taken of the transformation products. Data from these experiments was examined using the Masterview software (ABSciex).
Potential transformation products identified using TOF mass spectrometry and other potential transformation products identified from literature were then re-examined by HPLC/ triple quadrupole mass spectrometry using multiple reaction monitoring. Product ions used were as identified from QTOF data or from literature references and parameters such as collision energy optimised by repeated injections of samples for compounds detected. […]

Symbiodinium sp. = assay: Microalgal PAM fluorometry assay, inhibition of ∆F/Fm′ (24 h, 96-well plate); type: cell-based; settings: 24 h; for IC20: read-out: IC20 parent (inhibition of ∆F/Fm′ by 20%); for IC50: read-out: IC50 parent (inhibition of ∆F/Fm′ by 50%); for IC10 parent (inhibition of ∆F/Fm′ by 10%): Symbiodinium sp., pure compound
Description: (§1) Microalgae play a critical role in the marine food web and have been used in a number of sensitive assays for the assessment of toxicity of both herbicides and their transformation products[13],[16],[60]. High throughput 96 well plate designs allow for increased replication and a wide range of concentrations especially when paired with pulse amplitude modulation (PAM) fluorometry[50],[61]. PAM fluorometry measures chlorophyll fluorescence and can be used to calculate inhibitions of effective quantum yield ∆F/Fm′, which is proportional to reduced photosynthetic efficiency[62] and growth in microalgae[63] and can be plotted against toxicant concentrations to derive concentrations that inhibit ∆F/Fm′ by 10, 20 and 50% (IC10, IC20 and IC50). In the present study the green algae (Dunaliella sp.) and coral symbiont (Symbiodinium sp.) were exposed to herbicides and aged herbicide solutions for 24 h in a 96-well plate format. A Maxi-Imaging-PAM (I-PAM) (Walz, GmbH Germany) was used to measure inhibition of ∆F/Fm′ using settings provided previously[36] and below.
(§2) Symbiodinium cells were isolated from coral by air blasting branches of Acropora tenuis colonies collected (collected under the permit G10-33440.1) at 2–5 m depth in Nelly Bay, Magnetic Island, GBR[36]. Symbiodinium cells were inoculated into sterile IMK growing media, the culture purified, DNA extracted, and Clade C1 identified as published previously[64],[65]. Cultures were maintained at 26 °C, 60 µE PAR, 14:10 light:dark photoperiod inside environmental chambers (Steridium e500). The Dunaliella sp. (CS-353) (Chlorophyceae) was obtained from the CSIRO Collection of Living Microalgae (CCLM). The algae was subcultured and grown in F2 media. For the toxicology assays, an exponentially growing culture was employed[63] and density adjusted by hemocytometry under 10× magnification. Day 7 sub-cultures were used throughout the experiment.
(§3) Herbicide solutions were delivered into each treatment plate using a Perkin Elmer Janus liquid handling system. Each well of the black 96-well plates (Perkin Elmer) received 100 µl herbicide solution as well as 100 µl of algal suspension (added via multi-channel pipette) and the solution was gently mixed. […] Each plate included a 3 µg l^−1 positive diuron control (n = 4) to confirm consistent sensitivities among the replicate algal subcultures. Treatments positions were randomised across the plates in duplicate[50],[61],[66]. Symbiodinium culture plates were incubated over a 12:12 h light:dark cycle at 26 °C and 60–70 µmol photons m^−2 s^−1 and Dunaliella sp. Plates incubated at: 26 °C and 130 µmol photons m^−2 s^−1. Microalgae were exposed for 24 h prior to PAM measurements. Samples were subjected to the 50 µmol photons m^−2 s^−1 actinic light for 1 min prior to measurement in the Maxi-IPAM (Actinic light = 1, ML = 10, ML frequency = 8, gain = 2 and damping = 1).
(§4) The model was constrained by applying a lower limit of 0% inhibition and all curves were tested for normality of the residuals and a replicate test was applied to assess the goodness of fit[36]. The probability that ICX values generated by the logistic curves were statistically different between parent and aged herbicide solutions was tested by applying the F test in Graph Pad Prism v6. ICXs were considered different when p < 0.05. Where inhibition data could not be fitted to logistic curves, one-way analysis of variance (ANOVA) was performed to identify treatments which caused significant (p < 0.05) inhibition comparison with control treatments (NCSS v9, Utah, USA). The larval prawn experimental data was arcsine square root transformed prior to statistical analysis.

Dunaliella sp. = assay: as above; type: cell-based; settings: 24 h; for IC20: read-out: IC20 parent (inhibition of ∆F/Fm′ by 20%); for IC50: read-out: IC50 parent (inhibition of ∆F/Fm′ by 50%); for IC10 parent (inhibition of ∆F/Fm′ by 10%): Dunaliella sp., pure compound
Description: as §1, §2, §3, §4

[2] = tested on: prawn (Penaeus monodon) larvae; assay: Prawn larvae assay, metamorphosis of nauplii into protozoea (24 h static); type: in vivo; settings: 24 h; for LOEC, prawn larval metamorphosis / NOEC, prawn larval metamorphosis: vs solvent control, ANOVA p < 0.05, aged solutions as concentration of parent herbicide; for Effect on prawn larval metamorphosis (in words): concentration range tested
Experimental: The giant tiger prawn (Penaeus monodon) can be found throughout the tropical Indo-Pacific region and can be obtained from aquaculture facilities and has a well-described life cycle. The aim of the larval prawn assay was to determine whether the herbicides and transformation products inhibit early naupliar development. Prawn eggs hatch into their first larval stage (nauplii), typically 12–15 h after spawning. During development the nauplii are lecithotrophic, and over the course of the next 36 h, nauplii pass through 6 sub-stages before metamorphosing into protozoae[67],[68].
Freshly hatched nauplii were harvested by light attraction over 30 min, and washed and aerated for 10 min with seawater, and transported to AIMS in Townsville, Queensland. […] The toxicity assays were performed in incubator shakers (set to 30 °C) under very low light and with gentle shaking to prevent individuals adhering to the side of experimental containers.
The larval stock was gently concentrated via reverse-gravity filtration to a higher density before dispensing 8–10 individuals per 20 ml glass scintillation vials. Additional positive control treatments in the form of 4 concentrations of copper II chloride solution (2 to 900 µg l^−1 Cu), were included for test validation. The static assay was terminated after 24 h and 10% seawater formalin was added as a preservative for later microscopy. Metamorphosis was considered successful when nauplii had developed into protozoea.
as §4

[3] = day 330, seawater with sediment, outdoor tanks

## CCNc1nc(O)nc(NCC)n1 [Simazine hydroxy, hydroxy simazine]
[1]; day 330
  Transformation product concentration: 45 µg/L

## CSc1nc(N)nc(NC(C)C)n1 [Ametryn desethyl, ametryn desethyl]
[1]; day 330
  Transformation product concentration: 23 µg/L

## CCNc1nc(NC(C)C)[nH]c(=O)n1 [Atrazine hydroxy, hydroxy atrazine]
[1]; day 330
  Transformation product concentration: 30 µg/L

## CCNc1nc(Cl)nc(NCC)n1 [Simazine]
Symbiodinium sp.
  IC20: 0.034 mg/L (≈ 0.169 µM)
  IC50: 0.084 mg/L (≈ 0.417 µM)
  IC10 parent (inhibition of ∆F/Fm′ by 10%): 21 (19–23) µg l^−1
Dunaliella sp.
  IC20: 0.017 mg/L (≈ 0.0843 µM)
  IC50: 0.087 mg/L (≈ 0.431 µM)
[1]; [3]
  % degradation: 63%
  Parent herbicide concentration: 384 µg/L

## simazine amine
[1]; day 330
  Transformation product concentration: 31 µg/L

## CN(C)c1nc(=O)n(C2CCCCC2)c(=O)n1C [Hexazinone]
Symbiodinium sp.
  IC20: 0.012 mg/L (≈ 0.0476 µM)
  IC50: 0.0457 mg/L (≈ 0.181 µM)
  IC10 parent (inhibition of ∆F/Fm′ by 10%): 5.3 (4.5–6.7) µg l^−1
Dunaliella sp.
  IC20: 0.01 mg/L (≈ 0.0396 µM)
  IC50: 0.038 mg/L (≈ 0.151 µM)
[2]
  LOEC, prawn larval metamorphosis: 1026 µg/L
  NOEC, prawn larval metamorphosis: 242 µg/L
[1]; 330 d
  % degradation: 58%
[1]; [3]
  Parent herbicide concentration: 366 µg/L

## CCNc1nc(NC(C)C)nc(SC)n1 [Ametryn]
Symbiodinium sp.
  IC20: 0.00082 mg/L (≈ 0.00361 µM)
  IC50: 0.0022 mg/L (≈ 0.00968 µM)
  IC10 parent (inhibition of ∆F/Fm′ by 10%): 0.47 (0.43–0.51) µg l^−1
Dunaliella sp.
  IC20: 0.00123 mg/L (≈ 0.00541 µM)
  IC50: 0.0034 mg/L (≈ 0.015 µM)
  IC10 parent (inhibition of ∆F/Fm′ by 10%): 0.70 (0.65–0.74) µg l^−1
[2]
  Effect on prawn larval metamorphosis (in words): did not affect metamorphosis
  LOEC, prawn larval metamorphosis: >517 µg/L
  NOEC, prawn larval metamorphosis: 517 µg/L
[1]; 330 d
  % degradation: 56%
[1]; [3]
  Parent herbicide concentration: 189 µg/L

## CN(C)C(=O)Nc1ccc(Cl)c(Cl)c1 [Diuron]
Symbiodinium sp.
  IC20: 0.00068 mg/L (≈ 0.00292 µM)
  IC50: 0.0014 mg/L (≈ 0.00601 µM)
  IC10 parent (inhibition of ∆F/Fm′ by 10%): 0.64 (0.57–0.71) µg l^−1
Dunaliella sp.
  IC20: 0.00174 mg/L (≈ 0.00746 µM)
  IC50: 0.0044 mg/L (≈ 0.0189 µM)
  IC10 parent (inhibition of ∆F/Fm′ by 10%): 1.02 (0.94–1.10) µg l^−1
[2]
  Effect on prawn larval metamorphosis (in words): did not affect metamorphosis
  LOEC, prawn larval metamorphosis: >874 µg/L
  NOEC, prawn larval metamorphosis: 874 µg/L
[2]; listed as diuron
  LOEC, prawn larval metamorphosis: > 874 µg/L
[1]; [3]
  % degradation: 93%
  Parent herbicide concentration: 71 µg/L

## hexazinone oxy
[1]; day 330
  Transformation product concentration: 26 µg/L

## NC(=O)Nc1ccc(Cl)c(Cl)c1 [DCPU, 3,4-dichlorophenylurea]
[1]; day 330
  Transformation product concentration: 85 µg/L

## CCNc1nc(N)nc(Cl)n1 [Desethyl simazine, desethyl simazine]
[1]; day 330
  Transformation product concentration: 79 µg/L

## CNC(=O)Nc1ccc(Cl)c(Cl)c1 [DCPMU, 3-(3,4-dichlorophenyl)-1-methylurea]
[1]; day 330
  Transformation product concentration: 236 µg/L

## [Cl][Cu][Cl] [Copper reference, copper II chloride, reference compound]
[2]
  LOEC, prawn larval metamorphosis: 91 µg/L
  NOEC, prawn larval metamorphosis: 11 µg/L

## CNc1nc(=O)n(C2CCCCC2)c(=O)n1C [Hexazinone desmethyl, hexazinone desmethyl]
[1]; day 330
  Transformation product concentration: 91 µg/L

## CCNc1nc(Cl)nc(NC(C)C)n1 [Atrazine]
Symbiodinium sp.
  IC20: 0.014 mg/L (≈ 0.0649 µM)
  IC50: 0.0345 mg/L (≈ 0.16 µM)
  IC10 parent (inhibition of ∆F/Fm′ by 10%): 8.6 (8.0–9.3) µg l^−1
Dunaliella sp.
  IC20: 0.018 mg/L (≈ 0.0835 µM)
  IC50: 0.035 mg/L (≈ 0.162 µM)
  IC10 parent (inhibition of ∆F/Fm′ by 10%): 12 (11–14) µg l^−1
[2]
  LOEC, prawn larval metamorphosis: 899 µg/L
  NOEC, prawn larval metamorphosis: 197 µg/L
[1]; [3]
  % degradation: 64%
  Parent herbicide concentration: 278 µg/L

## CCNc1nc(NC(C)C)[nH]c(=O)n1 [Ametryn hydroxy, hydroxy ametryn]
[1]; day 330
  Transformation product concentration: 188 µg/L

## hexazinone hydroxy
[1]; day 330
  Transformation product concentration: 5.4 µg/L

## CCNc1nc(N)nc(SC)n1 [Ametryn desisopropyl, ametryn desisopropyl]
[1]; day 330
  Transformation product concentration: BDL
